Source: paper PMC7179685, “Iminosugars With Endoplasmic Reticulum α-Glucosidase Inhibitor Activity Inhibit ZIKV Replication and Reverse Cytopathogenicity in vitro” (Frontiers in Microbiology, 2020)
pEC50: −log10 of the molar value. Counter-ions that a name gives are not always drawn.

How the values were obtained:
[1] = tested on: ZIKV; design: method as in Ma et al., 2018; conditions: ref Ma et al., 2018, cited from earlier work
[2] = tested on: Vero cells; experiment: Cytotoxicity, MTS cell viability assay in Vero cells; assay type: cell-based, African green monkey; conditions: 72 h post treatment; for metabolic activity (cytotoxicity, MTS): 1000 μM; for metabolic activity compared to vehicle control (cytotoxicity, MTS): 0.01 to 100 μM
Method: (§1) A cell viability assay was used to evaluate both the cytotoxicity and antiviral abilities of the iminosugars with appropriate controls as previously described ([Fletcher et al., 2000]) using the CellTiter 96® AQueous One Solution Cell Proliferation Assay (MTS, Promega, Madison, WI, United States) following the manufacturer’s instructions. At 60–70% confluence, Vero cells and CHME3 cells were pretreated with iminosugars for 2 h and then infected with ZIKV according to the plate layout shown in Supplementary Figure S1. Four biological replicates were used to assess cytotoxicity, and six replicates were used to assess the antiviral ability of each iminosugar with concentrations ranging from 0.01 to 1000 μM or vehicle (sterile nuclease-free water). Cells treated with iminosugars or vehicle control were infected with ZIKV strain PRVABC59, IBH30656 or MEX 2-81 at a multiplicity of infection (MOI) of 1 in infection medium consisting of DMEM supplemented with 5% FBS and 1% antibiotic/antimycotic solution. The CHME3 infection medium was additionally supplemented with 0.1% non-essential amino acids (NEAA). At 72 h post-infection (hpi), MTS solution was added to the wells, and after 2 h, the optical density was measured at 490 nm using a microplate reader (ELx800; BioTek, Winooski, VT, United States). Previous studies have shown that ER α-glucosidase inhibitor, Celgosivir prevents DENV secretion in primary human macrophages with an EC50 of 5 μM and has CC50 greater than 1000 μM in MBDK cells ([Whitby et al., 2004]; [Sung et al., 2016]).

[3] = tested on: ZIKV PRVABC59; experiment: Virus yield reduction assay (qRT-PCR and TCID50) in CHME3 cells; assay type: cell-based, Zika virus; conditions: 1 μM, 48 hpi
Method: (§2) Zika virus yield reduction following treatment with iminosugars was assessed by measuring the NS1 gene by a previously described quantitative reverse transcription-polymerase chain reaction (qRT-PCR) and infectious virus titration in Vero cells ([Reed and Muench, 1938]; [Goebel et al., 2016]). Vero and CHME3 cells pre-treated 1 μM of castanospermine, celgosivir or DNJ for 2 h and then were infected with PRVABC59 either at MOI 0.5 or 5 in infection medium. After 2 h of incubation with the virus, medium from cells was removed, cells were washed with phosphate buffered saline, and fresh infection medium containing 1 μM of castanospermine, celgosivir or DNJ was added to the wells. At 48 and 72 hpi, culture supernatants were harvested and stored at −80°C until use for viral RNA extraction. Viral RNA was extracted from 50 μl of sample using the MagMAX-96 Viral RNA Isolation Kit (Applied Biosystems, Foster City, CA, United States) on a MagMAX Express-96 Deep Well Magnetic Particle Processor (Applied Biosystems). The amount of ZIKV genomic RNA was measured by qRT-PCR using SuperScript® III Platinum One-Step qRT-PCR Kit on a 7500 Fast Real-Time PCR System (Applied Biosystems). The primers (F: 5′-[…]-3′, R: 5′-[…]-3′) and probe sequence (5′- FAM-TGCCCAACA/ZEN/CAAGGTGAAGCC TACCT-BHQ) were purchased from Integrated DNA Technologies (IDT; Coralville, IA, United States), and the qRT-PCR cycling conditions included an initial cDNA synthesis for 30 min at 50°C, followed by 2 min at 95°C and 45 cycles of 2-step cycling at 95°C for 15 s, then 55°C for 30 s ([Goebel et al., 2016]). The ZIKV copy numbers were quantified using a standard curve generated with serial dilutions of positive control ZIKV RNA standards derived from ZIKV with known TCID50 value. Cell culture supernatants were titrated for the infectious virus in Vero cells, and titer was expressed as TCID50 calculated using the Reed-Muench method ([Reed and Muench, 1938]).

[4] = tested on: activated caspases 3 and 7; experiment: Measurement of apoptosis, Caspase-Glo 3/7 assay in ZIKV-infected CHME3 cells; assay type: cell-based, Human; conditions: PRVABC59, MOI 1, 0.01 to 1000 μM, 48 and 72 hpi
Method: Apoptotic cell death was evaluated by measuring the levels of active caspase 3 and 7 in cells using the Caspase-Glo® 3/7 Assay (Promega) following the manufacturer’s instructions. CHME3 cells in 96-well white-walled cell culture plates (Greiner Bio-One, Kremsmünster, Austria) were pre-treated with celgosivir for 2 h and then infected with PRVABC59 at MOI 1 in the presence of celgosivir at concentrations ranging from 0.01 to 1000 μM or vehicle. Controls for media color, cells, and virus were included. At 48 and 72 hpi, Caspase-Glo® Reagent was added, and after 30 min the luminescence of each sample was read five times using a Spark multimode microplate reader (TECAN, Männedorf, Switzerland) at an interval of 2 min for 15 s. The average of the five readings was used as the measurement for each biological replicate.

[5] = tested on: ZIKV strain PRVABC59; experiment: Antiviral screening assay (MTS cell viability after infection) in CHME3 cells; assay type: cell-based, Zika virus; conditions: for ZIKV-induced cell death (MTS): PRVABC59, MOI 1, 72 hpi; for viability at 0.01 µM: Zika virus, read-out: cell viability following ZIKV infection
Method: as §1

[6] = tested on: dengue virus (DENV); design: method as in Rathore et al., 2011; conditions: BHK-21 cells; MOI 0.3; ref Rathore et al., 2011; cited from earlier work
[7] = tested on: DENV; design: method as in Whitby et al., 2004; Sung et al., 2016; conditions: primary human macrophages; ref Whitby et al., 2004; Sung et al., 2016; read-out: EC50, prevention of DENV secretion; cited from earlier work
[8] = tested on: ZIKV strain PRVABC59; experiment: Antiviral screening assay (MTS cell viability after infection) in Vero cells; assay type: cell-based, Zika virus; conditions: for ZIKV-induced cell death (MTS): Vero cells, PRVABC59, MOI 1, 72 hpi; for viability at 0.01 µM: Zika virus, Vero, read-out: cell viability following ZIKV infection
Method: as §1

[9] = tested on: CHME3 cells; experiment: Measurement of necrosis, LDH assay in ZIKV-infected CHME3 cells; assay type: cell-based, Human; conditions: PRVABC59, MOI 1, 72 hpi
Method: Cell necrosis was evaluated by measuring the levels of lactate dehydrogenase (LDH) in cells using the CytoTox 96 Non-Radioactive Cytotoxicity Assay (Promega) following the manufacturer’s instructions. LDH is a soluble stable cytosolic enzyme present in many cell types which is rapidly released into the cell culture medium following disruption of the plasma membrane. LDH is a widely used marker to measure cellular cytotoxicity and necrosis. CHME3 cells in 96-well cell culture plates were pre-treated with celgosivir for 2 h and then infected with PRVABC59 at MOI 1 in the presence of celgosivir at concentrations ranging from 0.01 to 1000 μM or vehicle. Controls for media color, cells, and virus were included. At 48 and 72 hpi, 50 μl of supernatant from each well was transferred into a new 96-well plate, and 50 μl of CytoTox 96® Reagent was added to each well. After incubating at room temperature in the dark, 50 μl of Stop Solution was added to each well, and the optical density was measured at 490 nm using an ELx800 microplate reader (BioTek).

[10] = tested on: MBDK cells; design: method as in Whitby et al., 2004; Sung et al., 2016; conditions: ref Whitby et al., 2004, Sung et al., 2016; cited from earlier work
[11] = tested on: MDA5, RIG-I, MX1, IRF7, IFNβ, ISG15; experiment: Antiviral gene expression by qRT-PCR in CHME3 cells; assay type: cell-based, Human; conditions: 1 μM
Method: CHME3 cells grown in 6-well plates and at 70% confluency were infected with PRVABC59 at MOI 1. After pre-incubation with the virus for 2 h, medium from cells was removed, cells were washed with PBS, and fresh infection medium containing 1 μM celgosivir was added. Negative control wells were added with infection medium without celgosivir. Three wells were used for each treatment. At 24, 48, and 72 h, total RNA was extracted from cells using the RNeasy Plus Minikit (Qiagen, Hilden, Germany) according to the manufacturer’s protocol. Complementary DNA was synthesized from 1 μg of total RNA using 4 μl of qScript cDNA SuperMix (5x) (QuantaBio, Beverly, MA, United States). qRT-PCR was performed on a 7500 Fast Real-Time PCR System (Applied Biosystems) using PowerSybr Green PCR MasterMix (Applied Biosystems) according to the manufacturer’s instructions. Expression of retinoic acid-inducible gene 1 (RIGI), melanoma differentiation-associated protein 5 (MDA5), interferon regulatory factor 7 (IRF7), interferon β (IFNβ), interferon-induced GTP-binding protein (MX1) and interferon-stimulated gene 15 (ISG15) were quantified, and hypoxanthine phosphoribosyltransferase 1 (HPRT1) was used as a house-keeping gene for data normalization. All primers used were previously published and were supplied by IDT ([Megiorni et al., 2005]; [Kim et al., 2008]; [Nasirudeen et al., 2011]; [Muramatsu et al., 2014]; [Seng et al., 2014]; [Liu et al., 2015]; [Livingstone et al., 2015]).

[12] = tested on: ZIKV PRVABC59; experiment: Virus yield reduction assay (qRT-PCR and TCID50) in Vero cells; assay type: cell-based, Zika virus; conditions: 1 μM, 48 hpi; for PRVABC59 ZIKV RNA in supernatant compared with vehicle control (qRT-PCR): MOI 0.5 and MOI 5, p ≤ 0.0318; for infectious PRVABC59 ZIKV titers (TCID50): MOI 0.5 and MOI 5, p ≤ 0.0433
Method: as §2

[13] = tested on: CHME3 cells; experiment: Cytotoxicity, MTS cell viability assay in CHME3 cells; assay type: cell-based, Human; conditions: 72 h post treatment; for metabolic activity (cytotoxicity, MTS): 1000 μM; for metabolic activity compared to vehicle control (cytotoxicity, MTS): 0.01 to 100 μM
Method: as §1

SMILES	metabolic activity (cytotoxicity, MTS) [2]	metabolic activity compared to vehicle control (cytotoxicity, MTS) [2]	infectious PRVABC59 ZIKV titers (TCID50) ([3]; MOI 0.5)	infectious PRVABC59 ZIKV titers (TCID50) ([3]; MOI 5, p ≤ 0.0433)	ZIKV-induced cell death (MTS) ([5]; CHME3 cells)	viability at 0.01 µM [5] [%]	ZIKV-induced cell death (MTS) [8]	viability at 0.01 µM [8] [%]	PRVABC59 ZIKV RNA in supernatant compared with vehicle control (qRT-PCR) [12]	infectious PRVABC59 ZIKV titers (TCID50) [12]	metabolic activity (cytotoxicity, MTS) [13]	metabolic activity compared to vehicle control (cytotoxicity, MTS) [13]	further results
CC(C)(C)NC(=O)N(CCCCCCN1C[C@H](O)[C@@H](O)[C@H](O)[C@H]1CO)C1CCCCC1 [IHVR-19029]	–	–	–	–	–	–	–	–	–	–	–	–	ZIKV RNA production ([1]; HEK293 embryonic kidney cells, MOI 0.1, 0.1 μM, the lowest concentration tested): decreased ZIKV RNA production; ZIKV viral replication ([1]; embryonic kidney cells): reduced
CCCC(=O)O[C@H]1CN2CC[C@H](O)[C@@H]2[C@@H](O)[C@@H]1O [celgosivir, 6-O-butanoyl castanospermine]	decrease in metabolic activity	No reduction in metabolic activity	statistically significant reduction	statistically significant reduction	reduce ZIKV-induced cell death	> 90	reduce ZIKV-induced cell death	> 90	Significant reductions	statistically significant reduction	decrease in metabolic activity	No reduction in metabolic activity	levels of activated caspases 3 and 7 in comparison to untreated infected cells [4]: did not significantly reduce; effectiveness against DENV relative to castanospermine [6]: 100 times; pEC50 [7]: 5.30; ZIKV-induced LDH activity (necrosis) [9]: reduced PRVABC59 ZIKV-induced LDH activity to levels equivalent to mock-infected cells; CC50 [10]: > 1000 µM; decrease of IFNβ expression levels ([11]; PRVABC59 ZIKV-infected CHME3 cells, treated vs not treated, 48 hpi, p = 0.033): 27%; expression levels of MDA5, RIG-I, MX1, IRF7, and ISG15, treated vs vehicle-treated ([11]; PRVABC59 ZIKV-infected CHME3 cells, any timepoint (24, 48, 72 h)): not significantly different; decrease of IFNβ gene expression ([11]; mock-infected CHME3 cells, treated vs untreated, 48 hpi, statistically significant): 22%; level of IFNβ expression, treated vs untreated ([11]; mock-infected CHME3 cells, 72 hpi): similar
OC[C@H]1NC[C@H](O)[C@@H](O)[C@@H]1O [DNJ, 1-deoxynojirimycin hydrochloride]	decrease in metabolic activity	No reduction in metabolic activity	statistically significant reduction	statistically significant reduction	reduce ZIKV-induced cell death	> 90	reduce ZIKV-induced cell death	> 90	Significant reductions	statistically significant reduction	decrease in metabolic activity	No reduction in metabolic activity	–
O[C@H]1[C@H](O)[C@@H](O)CN2CC[C@H](O)[C@H]12 [castanospermine]	decrease in metabolic activity	No reduction in metabolic activity	not statistically significant	statistically significant reduction	reduce ZIKV-induced cell death	–	reduce ZIKV-induced cell death	–	Significant reductions	statistically significant reduction	decrease in metabolic activity	No reduction in metabolic activity	PRVABC59 ZIKV RNA in supernatant, reduction vs control cells (qRT-PCR) ([3]; MOI 5): not significant; cell viability following ZIKV infection ([5]; CHME3 cells, MOI 1, 10 μM required): 90%
